Test results from patent US8883963B2 (Cadila Healthcare Limited, priority 2007, dated 2014).

Key:
[1] = target: T1, Human GLP-1 receptor (Homo sapiens, UniProt P43220); test: In vitro Human GLP-1 R agonist activity (cyclic AMP determination) in CHO/human GLP1R cells; assay type: cell-based
T1 construct: The full-length cDNA was cloned in pcDNA3.1(+); expressed in transfected cells
Method: The novel peptidomimetics were screened for Human GLP-1 receptor (HGLP-1 R) agonist activity (in vitro), using the cAMP cell-based assay, in stably transfected CHO/human GLP1R cells. […] CHO cells were grown in Ham's F12 medium containing L-Glutamine (2 mM), HEPES (25 mM), NaHCO3 (1.1 g/L) and supplemented with NewBorn Calf Serum (NBCS; 10%), Penicillin (50 U/ml (v/v)) and Streptomycin (50 ug/ml (v/v)). Cells were split every 3 days 1:8.
The cDNA encoding the human GLP-1 receptor was isolated by RT-PCR according to standard protocol. The full-length cDNA was cloned in pcDNA3.1(+). […] Clones expressing the receptor were generated by G418 (800 μg/ml active, Sigma) selection. The stable clones were thereafter maintained at 500 ug/ml (G418). The selected clone was used between passages 9-25 for cAMP assays.
The trypsin was inactivated using Ham's F12 medium containing 10% NBCS and the cells were suspended in 2 ml of complete medium. […] The medium was aspirated off from the 12 well plate and the cells were washed once using Ham's F12 (plain). […] The cells were incubated with the test compounds for 30 min in humidified atmosphere and 37° C. After the incubation, the medium was removed and cells were washed once with plain Ham's F12. Subsequently, the cells were lysed by adding 500 ul of ice cold 0.1 N HCl to each well and shaking for 30 minutes at 200 rpm. The cells were then scrapped, the lysate was collected in micro centrifuge tubes and centrifuged at 12000 rpm for 10 min to remove the debris. 300 ul of supernatant from each micro-centrifuge tube was then removed into a glass tube and dried under N2 for 30 min, for cAMP estimation. The total cAMP was estimated from the sample according to the manufacturer's protocol using Cyclic AMP immunoassay kit (R&D systems, Minneapolis. MN). The remaining supernatant is used to determine the protein concentration using micro BCA (Sigma). Data is calculated as percent of control (Vehicle: water) and expressed as Mean±SD.

[2] = target: DPP IV (Homo sapiens, UniProt P27487); test: Stability against DPP IV enzyme; assay type: in vitro ADME; conditions: 37° C.; for % degradation of peptidomimetics in 24 h when incubated with DPP-IV enzyme: 2 μM peptidomimetic; for half-life at 2 μM: DPP IV enzyme, pH 7.8, 2 μM peptidomimetic, read-out: half-life (t1/2) when incubated with DPP-IV enzyme
Sequence of DPP IV (P27487 whole entry, species assumed): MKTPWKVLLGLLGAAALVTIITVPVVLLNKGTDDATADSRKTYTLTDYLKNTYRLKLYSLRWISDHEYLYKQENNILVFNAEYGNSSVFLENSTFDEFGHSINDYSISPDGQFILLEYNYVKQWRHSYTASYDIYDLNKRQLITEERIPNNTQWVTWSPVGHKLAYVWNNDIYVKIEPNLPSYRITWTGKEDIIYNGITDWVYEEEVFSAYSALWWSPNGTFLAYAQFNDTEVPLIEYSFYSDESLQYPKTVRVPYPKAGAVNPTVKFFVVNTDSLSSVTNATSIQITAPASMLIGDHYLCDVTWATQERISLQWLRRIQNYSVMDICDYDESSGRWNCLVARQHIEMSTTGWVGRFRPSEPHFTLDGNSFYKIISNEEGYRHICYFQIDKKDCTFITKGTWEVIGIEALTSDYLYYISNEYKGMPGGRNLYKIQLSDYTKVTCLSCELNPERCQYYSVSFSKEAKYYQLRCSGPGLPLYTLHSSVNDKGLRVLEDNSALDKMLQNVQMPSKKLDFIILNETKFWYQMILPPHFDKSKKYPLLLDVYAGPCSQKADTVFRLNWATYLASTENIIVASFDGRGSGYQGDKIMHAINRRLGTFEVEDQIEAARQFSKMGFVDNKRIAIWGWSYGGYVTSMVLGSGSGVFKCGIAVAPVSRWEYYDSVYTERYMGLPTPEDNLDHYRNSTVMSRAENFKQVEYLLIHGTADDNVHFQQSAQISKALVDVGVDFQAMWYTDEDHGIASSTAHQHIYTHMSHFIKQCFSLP
Method: (§1) Reactions were terminated by the addition of TFA/H2O (15 mL, 10% (v/v)). […] The column was equilibrated with TFA/H20, at a flow rate of 1 mL/min.

[3] = Stability in human plasma; assay type: in vitro ADME; conditions: 2 μM peptidomimetic, pooled human plasma, 37° C.; for half-life at 2 μM: pH 7.8, read-out: half-life (t1/2) when incubated with human plasma
Method: as §1

[4] = Stability in simulated gastric fluid; assay type: in vitro ADME; conditions: 2 μM peptidomimetic, simulated gastric fluid pH 1.5, 37° C.; for half-life at 2 μM: read-out: half-life (t1/2) when incubated with simulated gastric fluid
Method: as §1

[5] = Stability in simulated intestinal fluid; assay type: in vitro ADME; conditions: 2 μM peptidomimetic, simulated intestinal fluid pH 7.5, 37° C.; for half-life at 2 μM: read-out: half-life (t1/2) when incubated with simulated intestinal fluid
Method: as §1

[6] = Stability in liver microsomes; assay type: in vitro ADME; conditions: 2 μM peptidomimetic, human liver microsomes, 37° C.; for half-life at 2 μM: pH 7.8, read-out: half-life (t1/2) when incubated with liver microsomes
Method: as §1

T1 sequence (P43220 24-463): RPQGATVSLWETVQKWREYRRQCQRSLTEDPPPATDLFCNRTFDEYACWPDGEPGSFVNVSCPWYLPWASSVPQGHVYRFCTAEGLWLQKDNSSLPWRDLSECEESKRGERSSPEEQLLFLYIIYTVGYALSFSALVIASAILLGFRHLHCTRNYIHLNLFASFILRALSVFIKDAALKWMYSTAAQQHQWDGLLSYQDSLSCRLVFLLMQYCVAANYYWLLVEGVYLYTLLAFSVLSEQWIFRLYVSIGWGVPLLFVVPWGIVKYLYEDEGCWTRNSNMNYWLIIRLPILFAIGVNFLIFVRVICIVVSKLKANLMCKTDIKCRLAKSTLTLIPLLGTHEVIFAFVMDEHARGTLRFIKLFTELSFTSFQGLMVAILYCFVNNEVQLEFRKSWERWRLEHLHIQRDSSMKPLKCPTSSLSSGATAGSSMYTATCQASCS

Structure (SMILES)	Human GLP-1 R activity (cAMP release), % activity with respect to control ([1]; 1 nM test compound)	Human GLP-1 R activity (cAMP release), % activity with respect to control ([1]; 10 nM test compound)	Human GLP-1 R activity (cAMP release), % activity with respect to control ([1]; 100 nM test compound)	Human GLP-1 R activity (cAMP release), % activity with respect to control ([1]; 1 μM test compound)	Human GLP-1 R activity (cAMP release), % activity with respect to control ([1]; 10 μM test compound)	% degradation of peptidomimetics in 24 h when incubated with DPP-IV enzyme [2]	half-life at 2 μM [2]	% degradation of peptidomimetics in 24 h when incubated with human plasma [3]	half-life at 2 μM [3]	half-life (t1/2) when incubated with simulated gastric fluid [4]	% degradation of peptidomimetics in 24 h when incubated with simulated gastric fluid [4]	half-life (t1/2) when incubated with simulated intestinal fluid [5]	% degradation of peptidomimetics in 24 h when incubated with simulated intestinal fluid [5]	% degradation of peptidomimetics in 24 h when incubated with liver microsomes [6]	half-life at 2 μM [6]	half-life at 2 μM [4]	half-life at 2 μM [5]
CCc1cc(OC)ccc1-c1ccc(CC(NC(=O)[C@H](CC(=O)O)NC(=O)[C@H](CO)NC(=O)[C@@H](NC(=O)[C@H](Cc2ccccc2)NC(=O)[C@@H](NC(=O)CNC(=O)[C@H](CCC(N)=O)NC(=O)C(C)(C)NC(=O)[C@@H](N)Cc2c[nH]cn2)[C@@H](C)O)[C@@H](C)O)C(=O)NC(CCCc2ccc(OC)cc2Cl)C(N)=O)cc1 (single isomer, unassigned) [compound 68]	39 ± 0.11%	80 ± 0.09%	88 ± 0.06%	96 ± 0.14%	99 ± 0.19%	74%	9 h	75%	8 h	(8) h	12%	(6) h	46%	83%	1 h	–	–
CCc1cc(OC)ccc1-c1ccc(CC(CNC(CCCc2ccccc2)C(N)=O)NC(=O)[C@H](CC(=O)O)NC(=O)[C@H](CO)NC(=O)[C@@H](NC(=O)C(C)(Cc2ccccc2F)NC(=O)[C@@H](NC(=O)CNC(=O)[C@H](CCC(N)=O)NC(=O)C(C)(C)NC(=O)[C@H](Cc2c[nH]cn2)NC(C)=O)[C@H](C)O)[C@H](C)O)cc1 (single isomer, unassigned) [compound 185]	46 ± 0.022%	85 ± 0.46%	90 ± 0.41%	99 ± 0.66%	99 ± 0.03%	00%	> 24 h	00%	> 24 h	–	55%	–	00%	84%	2 h	4 h	> 24 h
CCc1cc(OC)ccc1-c1ccc(CC(CNC(CCCc2ccccc2)C(N)=O)NC(=O)[C@H](CC(=O)O)NC(=O)[C@H](CO)NC(=O)[C@@H](NC(=O)C(C)(Cc2ccccc2F)NC(=O)[C@@H](NC(=O)CNC(=O)C(CCC#N)NC(=O)C(C)(C)NC(=O)[C@@H](N)Cc2c[nH]cn2)[C@H](C)O)[C@H](C)O)cc1 (single isomer, unassigned) [compound 190]	41 ± 0.09%	82 ± 0.07%	87 ± 0.04%	95 ± 0.01%	98 ± 0.08%	00%	> 24 h	00%	> 24 h	–	45%	–	00%	85%	2 h	4 h	> 24 h
